Several values for one entry are separate records, joined by “and”; a condition that tells them apart may be missing. Identical values can stand only once. Like-named read-outs stand apart in the source and are kept apart here.

In one data set the test system is leukemia cell lines. Description: NCI-60 five-dose screen, leukemia sub-panel. The class given is cell-based. The note with it: Homo sapiens, read-out: GI50 values in the range.
The subject of the next data set is M9-ENL1 cells. Description: M9-ENL1 cell assay. Format: cell-based. The note with it: M9-ENL1, 24 h.
The test system of data set [1] is rat 9L-SF gliosarcoma cells. Description: Colony formation assay with 9L-SF cells.
Data set [2] relates to primary AML cell specimen AML03. Description: Primary AML cell assay. Format: cell-based. The note with it: Homo sapiens, 24 h.
Data set [3] has as its system primary AML cell specimens. Description: Primary AML cell assay, specimens taken together. The settings on record: Homo sapiens. Format: cell-based.
Data set [4] deals with panel of 60 human cancer cell lines. Description: NCI-60 five-dose screen, whole panel. Format: cell-based.

As to `C=C1C(=O)O[C@H]2[C@H]1CC/C(COC(=O)NCCCCCNC(=O)OC/C1=C/CC[C@@]3(C)O[C@H]3[C@H]3OC(=O)C(=C)[C@@H]3CC1)=C\CC[C@@]1(C)O[C@@H]21` [7c, bis-E-(((1aR,7aS,10aS,10bS)-1a-Methyl-8-methylene-9-oxo-1a,2,3,6,7,7a,8,9,10a,10b-decahydrooxireno[2',3':9,10]cyclodeca[1,2-b]furan-5-yl)methyl)pentane-1,5-diyldicarbamate], the GI50 in the data set on leukemia cell lines was in the range of 250 to 780 nM.
Molecule `C=C1C(=O)O[C@H]2[C@H]1CC/C(COC(=O)OC/C1=C/CC[C@@]3(C)O[C@H]3[C@H]3OC(=O)C(=C)[C@@H]3CC1)=C\CC[C@@]1(C)O[C@@H]21` [compound 8, bis-E-(((1aR,7aS,10aS,10bS)-1a-Methyl-8-methylene-9-oxo-1a,2,3,6,7,7a,8,9,10a,10b-decahydrooxireno[2',3':9,10]cyclodeca[1,2-b]furan-5-yl)methyl) carbonate] displayed an EC50 in the data set with M9-ENL1 cells of 500 nM. In data set [1] (clonogenic survival, 48 h, at a concentration of 10 μM), the “fold more cytotoxic than DMAPT” value is 1 × 10^6 fold and 1.08 × 10^6 fold. Moreover, in data set [1] (colony formation assay, at 10 μM), the “fold more toxic than compound 7f” value was 3,564 fold.
In the case of `C=C1C(=O)O[C@H]2[C@H]1CC/C(COC(=O)NCCCCNC(=O)OC/C1=C/CC[C@@]3(C)O[C@H]3[C@H]3OC(=O)C(=C)[C@@H]3CC1)=C\CC[C@@]1(C)O[C@@H]21` [7b, bis-E-(((1aR,7aS,10aS,10bS)-1a-Methyl-8-methylene-9-oxo-1a,2,3,6,7,7a,8,9,10a,10b-decahydrooxireno[2',3':9,10]cyclodeca[1,2-b]furan-5-yl)methyl)butane-1,4-diyldicarbamate], the GI50 in the data set on leukemia cell lines lay within 250 to 780 nM.
For `C=C1C(=O)O[C@@H]2[C@H]3O[C@]3(C)CC/C=C(\C)CC[C@@H]12` [compound 1, parthenolide], the EC50 in data set [2] is 5000 nM; in data set [3] (AML01, read-out: EC50 (range)), 2500 to 8000 nM; in data set [3] (read-out: EC50 (range)), 2500 to 16000 nM.
As to `C=C1C(=O)O[C@H]2[C@H]1CC/C(COC(=O)NCCCCCCCCNC(=O)OC/C1=C/CC[C@@]3(C)O[C@H]3[C@H]3OC(=O)C(=C)[C@@H]3CC1)=C\CC[C@@]1(C)O[C@@H]21` [7f, bis-E-(((1aR,7aS,10aS,10bS)-1a-Methyl-8-methylene-9-oxo-1a,2,3,6,7,7a,8,9,10a,10b-decahydrooxireno[2',3':9,10]cyclodeca[1,2-b]furan-5-yl)methyl)octane-1,8-diyldicarbamate], the GI50 in the data set with leukemia cell lines was 250 to 780 nM; in data set [4] (60 cell, read-out: GI50 values in the nanomolar range, against most of the solid tumor cell lines in the 60 cell panel), 160 to 999 nM; in data set [4] (read-out: GI50 values, against more than 50% of the cancer cell lines in the panel), less than 500 nM.
In data set [2], `C=C1C(=O)O[C@H]2[C@H]1CC/C(COC(=O)OCCCCCOC(=O)OC/C1=C/CC[C@@]3(C)O[C@H]3[C@H]3OC(=O)C(=C)[C@@H]3CC1)=C\CC[C@@]1(C)O[C@@H]21` [7j, bis-E-(((1aR,7aS,10aS,10bS)-1a-Methyl-8-methylene-9-oxo-1a,2,3,6,7,7a,8,9,10a,10b-decahydrooxireno[2',3':9,10]cyclodeca[1,2-b]furan-5-yl)methyl)pentane-1,5-diyldicarbonate] came in with an EC50 of 1200 nM.

Values taken from PMC4959447 (Journal of medicinal chemistry, 2015).
